Like-named read-outs stand apart in the source and are kept apart here.
What was measured:
[1] = target: 6×HIS-tankyrase 1 (1091-1325) (Homo sapiens (Human), UniProt O95271); experiment: biochemical; type: biochemical
[2] = test system: total β-catenin in SW480 colorectal cells; experiment: cells; type: cell-based; details: Homo sapiens
Summary of the method: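 SW480 cells in growth medium (MEM alpha, 10% heat-inactivated FBS, 10 mM HEPES) treated with a 10-point, 3-fold dilution series of TNKS inhibitor for 40–48 h at 37 °C. Lysates run on an MSD sandwich immunoassay for total β-catenin, read by electrochemiluminescence.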

Axin2 in SW480 cells = experiment: cells; type: cell-based; details: Homo sapiens, read-out: Axin2 384 IF EC50 IP
Protocol: Using a VPrep, 10 μL of compound/controls was transferred from the compound plate to 60 μL in the cell plate (final 0.5% DMSO, 70 μL). The mixture was incubated for 24 hours at 37° C. at 5% CO2.
The extra media was tapped out. 50 μL of 4% paraformaldehyde (Fisher, AA433689M), 0.1% Triton (Sigma, X100-100 ML) in PBS were added, and the mixture was incubated for 15 minutes at room temperature. […] The extra media was tapped out and to this was added 50 μL of buffer containing Axin2 Antibody (Sigma, SAB1100677-200 µL) at 1:10000 in PBS, 0.1% Tween-20, 1% Normal Goat Serum. The mixture was incubated for 2 hours at room temperature or overnight at 4° C. The cells were then washed twice with PBS, 0.1% Tween-20, and 1% Normal Goat Serum. […] The mixture was then incubated for 30 minutes at room temperature. The cells were then washed twice with PBS, 0.1% Tween-20, and 1% Normal Goat Serum. 50-100 μL PBS was added, and the mixture was covered with a plate seal (Fisher, NC9425162). An ArrayScan (a variation of the compartmental analysis protocol was optimized) was used to scan the plates, and data was analyzed using MEAN_RingSpotAvgIntenCh2). The Axin2 accumulation POC was calculated, and the EC50 was determined using Genedata Screener software to report Axin2 activity.

[3] = […] enzyme, 400 nM NAD, 60 minutes at room temperature, read-out: TNKS1 IP IC50
[4] = SW480 cells, 40 to 48 hours, top concentration 10 μM, read-out: SW480-Total β-Catenin IC50 IP
[5] = SW480, 24 h, SW480 cells, 24 hours
[6] = SW480, read-out: SW480-Total β-Catenin IC50 IP

Chain of 6×HIS-tankyrase 1 (1091-1325) (O95271 1091-1325): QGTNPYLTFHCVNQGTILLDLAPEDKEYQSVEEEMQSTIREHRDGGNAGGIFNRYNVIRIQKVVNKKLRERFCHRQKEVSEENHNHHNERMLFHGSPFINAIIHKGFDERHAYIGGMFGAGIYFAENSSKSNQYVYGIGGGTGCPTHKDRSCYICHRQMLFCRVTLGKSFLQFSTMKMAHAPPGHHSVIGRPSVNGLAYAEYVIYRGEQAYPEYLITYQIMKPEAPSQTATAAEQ

Row | SMILES | IC50 [1, 3] [nM] | IC50 [2, 4] [nM] | EC50 (Axin2 in SW480 cells; [5]) [nM] | EC50 (Axin2 in SW480 cells; SW480 cells, 24 hours) [nM] | IC50 [2, 6] [nM] | EC50 (Axin2 in SW480 cells; SW480, 24 h) [nM] | IC50 [1] [nM]
1 | CC1(C)OC(=O)N(c2ccc(N3C(=O)Cc4ccccc43)cc2)[C@H]1c1ccccc1 [Example 18, (S)-5,5-dimethyl-3-(4-(2-oxoindolin-1-yl)phenyl)-4-phenyloxazolidin-2-one] | 973 | > 10000 | > 25000 | – | – | – | –
2 | CC1(C)OC(=O)N(c2ccc(-n3c(=O)[nH]c4ccccc43)nc2)[C@H]1c1ccccc1 [Example 22, (S)-5,5-dimethyl-3-(6-(2-oxo-2,3-dihydro-1H-benzo[d]imidazol-1-yl)pyridin-3-yl)-4-phenyloxazolidin-2-one] | 1430 | > 10000 | > 25000 | – | – | – | –
3 | CC1(c2ccccc2)CN([C@H]2CC[C@H](n3c(=O)[nH]c4ccccc43)CC2)C(=O)O1 (stereo partly drawn) [Example 34, (R+S) 5-methyl-3-((1r,4r)-4-(2-oxo-2,3-dihydro-1H-benzo[d]imidazol-1-yl)cyclohexyl)-5-phenyloxazolidin-2-one] | 42.8 | 829 | – | 2720 | – | – | –
4 | CC1(C)OC(=O)N(c2ccc(-c3cc(-c4ccccn4)cnn3)cc2)[C@H]1c1ccccc1 [Example 40, (S)-5,5-dimethyl-4-phenyl-3-(4-(5-(pyridin-2-yl)pyridazin-3-yl)phenyl)oxazolidin-2-one] | 621 | – | – | – | 9470 | > 25000 | –
5 | Cc1ccccc1[C@@H]1N(c2ccc(C(=O)Nc3cccc4cccnc34)cc2)C(=O)OC1(C)C [Example 41, (S)-4-(5,5-dimethyl-2-oxo-4-(o-tolyl)oxazolidin-3-yl)-N-(quinolin-8-yl)benzamide] | 116 | 1980 | 4370 | – | – | – | –
6 | CC1(C)OC(=O)N(c2ccc(C(=O)Nc3cccc4cccnc34)cc2)C1c1ccccc1F (stereo not drawn) [Example 42, (R+S) 4-(4-(2-fluorophenyl)-5,5-dimethyl-2-oxooxazolidin-3-yl)-N-(quinolin-8-yl)benzamide] | 263 | 4870 | 9400 | – | – | – | –
7 | CCC1(CC)OC(=O)N(c2ccc(C(=O)Nc3cccc4cccnc34)cc2)[C@H]1c1ccccc1 [Example 43, (S)-4-(5,5-diethyl-2-oxo-4-phenyloxazolidin-3-yl)-N-(quinolin-8-yl)benzamide] | 786 | > 10000 | – | > 25000 | – | – | –
8 | O=C(Nc1cccc2cccnc12)c1ccc(N2C(=O)OC3(CCC3)C2c2ccccc2)cc1 (stereo not drawn) [Example 44, (R+S) 4-(6-oxo-8-phenyl-5-oxa-7-azaspiro[3.4]octan-7-yl)-N-(quinolin-8-yl)benzamide] | 822 | 8800 | – | > 25000 | – | – | –
9 | O=C(Nc1cccc2cccnc12)c1ccc(N2C(=O)OC3(CCCC3)C2c2ccccc2)cc1 (stereo not drawn) [Example 45, (R+S) 4-(2-oxo-4-phenyl-1-oxa-3-azaspiro[4.4]nonan-3-yl)-N-(quinolin-8-yl)benzamide] | 1250 | – | – | – | > 10000 | > 25000 | –
10 | CC1(C)OC(=O)N([C@H]2CC[C@H](N3C(=O)C(F)(F)c4ccccc43)CC2)[C@H]1c1ccccc1 [Example 48, (S)-3-((1s,4R)-4-(3,3-difluoro-2-oxoindolin-1-yl)cyclohexyl)-5,5-dimethyl-4-phenyloxazolidin-2-one] | 617 | > 10000 | > 25000 | – | – | – | –
11 | CC1(C)OC(=O)N([C@H]2CC[C@H](n3c(=O)oc4cccnc43)CC2)[C@H]1c1ccccc1 [Example 49, 3-(trans-4-((4S)-5,5-dimethyl-2-oxo-4-phenyl-1,3-oxazolidin-3-yl)cyclohexyl)[1,3]oxazolo[4,5-b]pyridin-2(3H)-one] | – | 949 | > 25000 | – | – | – | 3460
12 | CC1(C)OC(=O)N([C@H]2CC[C@H](n3c(=O)[nH]c4cnc(C(F)(F)F)cc43)CC2)[C@H]1c1ccccc1 [Example 52, (S)-5,5-dimethyl-3-((1r,4S)-4-(2-oxo-6-(trifluoromethyl)-2,3-dihydro-1H-imidazo[4,5-c]pyridin-1-yl)cyclohexyl)-4-phenyloxazolidin-2-one] | 25.8 | 693 | 1030 | – | – | – | –
13 | CC1(C)OC(=O)N([C@H]2CC[C@H](n3c(=O)[nH]c4cnc(Cl)cc43)CC2)[C@H]1c1ccccc1 [Example 53, (S)-3-((1r,4S)-4-(6-chloro-2-oxo-2,3-dihydro-1H-imidazo[4,5-c]pyridin-1-yl)cyclohexyl)-5,5-dimethyl-4-phenyloxazolidin-2-one] | 6.52 | 284 | 291 | – | – | – | –
14 | CC1(C)OC(=O)N([C@H]2CC[C@H](n3c(=O)[nH]c4cnc(C#N)cc43)CC2)[C@H]1c1ccccc1 [Example 54, 1-((1S,4r)-4-((S)-5,5-dimethyl-2-oxo-4-phenyloxazolidin-3-yl)cyclohexyl)-2-oxo-2,3-dihydro-1H-imidazo[4,5-c]pyridine-6-carbonitrile] | 7.42 | 605 | 725 | – | – | – | –
15 | CC1(C)OC(=O)N([C@H]2CC[C@H](n3c(=O)[nH]c4cnccc43)CC2)[C@H]1c1ccc(F)cc1 [Example 55, (S)-4-(4-Fluorophenyl)-5,5-dimethyl-3-((1r,4S)-4-(2-oxo-2,3-dihydro-1H-imidazo[4,5-c]pyridin-1-yl)cyclohexyl)oxazolidin-2-one] | 2.95 | 145 | 100 | – | – | – | –
16 | CC1(C)OC(=O)N([C@H]2CC[C@H](NC(=O)n3ccc4cccnc43)CC2)[C@H]1c1ccccc1 [Example 58, N-(trans-4-((4S)-5,5-dimethyl-2-oxo-4-phenyl-1,3-oxazolidin-3-yl)cyclohexyl)-1H-pyrrolo[2,3-b]pyridine-1-carboxamide] | 7.46 | 979 | 828 | – | – | – | –
17 | CC1(C)OC(=O)N([C@H]2CC[C@H](n3c(=O)[nH]c4cc(C#N)ccc43)CC2)[C@H]1c1ccc(F)cc1 [Example 61, 1-((1S,4r)-4-((S)-4-(4-fluorophenyl)-5,5-dimethyl-2-oxooxazolidin-3-yl)cyclohexyl)-2-oxo-2,3-dihydro-1H-benzo[d]imidazole-5-carbonitrile] | 3.42 | 148 | 238 | – | – | – | –
18 | CC1(C)OC(=O)N([C@H]2CC[C@H](N3Cc4cc(C#N)ccc4NC3=O)CC2)[C@H]1c1ccccc1 [Example 62, 3-((1S,4r)-4-((S)-5,5-dimethyl-2-oxo-4-phenyloxazolidin-3-yl)cyclohexyl)-2-oxo-1,2,3,4-tetrahydroquinazoline-6-carbonitrile] | 7.63 | 438 | 147 | – | – | – | –
19 | CC1(C)OC(=O)N(c2ccc3c(c2)CCN(c2cccc4cccnc24)C3=O)[C@H]1c1ccccc1 [Example 63, (S)-5,5-dimethyl-3-(1-oxo-2-(quinolin-8-yl)-1,2,3,4-tetrahydroisoquinolin-6-yl)-4-phenyloxazolidin-2-one] | 7050 | > 10000 | > 25000 | – | – | – | –
20 | CC1(C)OC(=O)N(c2ccc(-c3nnc4cc(-c5cncnc5)ccn34)cc2)[C@H]1c1ccccc1 [Example 66, (S)-5,5-dimethyl-4-phenyl-3-(4-(7-(pyrimidin-5-yl)-[1,2,4]triazolo[4,3-a]pyridin-3-yl)phenyl)oxazolidin-2-one] | 1970 | 9270 | > 25000 | – | – | – | –
21 | CC1(C)OC(=O)N(c2ccc(-c3nnc4cc(C#N)ccn34)cc2)[C@H]1c1ccccc1 [Example 67, (S)-3-(4-(5,5-dimethyl-2-oxo-4-phenyloxazolidin-3-yl)phenyl)-[1,2,4]triazolo[4,3-a]pyridine-7-carbonitrile] | 5230 | > 10000 | > 25000 | – | – | – | –
22 | CC1(C)OC(=O)N(c2ccc(-c3nnc4ccc(Cl)nn34)cc2)[C@H]1c1ccccc1 [Example 68, (S)-3-(4-(6-chloro-[1,2,4]triazolo[4,3-b]pyridazin-3-yl)phenyl)-5,5-dimethyl-4-phenyloxazolidin-2-one] | 1980 | > 10000 | > 25000 | – | – | – | –
23 | CC1(C)OC(=O)N(c2ccc(-n3nnc4ccccc43)cc2)[C@H]1c1ccccc1 [Example 69, (S)-3-(4-(1H-benzo[d][1,2,3]triazol-1-yl)phenyl)-5,5-dimethyl-4-phenyloxazolidin-2-one] | 2100 | > 10000 | > 25000 | – | – | – | –
24 | CC1(C)OC(=O)N(c2ccc(-c3cnc(N)nc3)cc2)[C@H]1c1ccccc1 [Example 70, (S)-3-(4-(2-aminopyrimidin-5-yl)phenyl)-5,5-dimethyl-4-phenyloxazolidin-2-one] | 1490 | > 10000 | > 25000 | – | – | – | –

Source: patent publication US9340549B2, “Oxazolidinone compounds and derivatives thereof” (priority 2012, dated 2016)
